Where “and” joins values, the source holds several entries; their conditions need not be identical. Identical values can stand only once.
Legend:
[1] = biological target: T1, ALSV MTase (Alongshan virus, UniProt A0A344X2I6); test: biochemical; type: binding
[2] = biological target: T1, ALSV MTase; type: biochemical

Row | SMILES | N index (binding stoichiometry) [1] | Kd [1] [µM] | inhibition of ALSV MTase methyltransferase activity [2]
1 | Nc1ncnc2c1ncn2[C@@H]1O[C@H](CSCC[C@H](N)C(=O)O)[C@@H](O)[C@H]1O [SAH, S-adenosyl-L-homocysteine] | 0.95 ± 0.05 and 1.05 ± 0.06 |  | 
2 | Nc1ncnc2c1ncn2[C@@H]1O[C@H](C[C@@H](N)CC[C@H](N)C(=O)O)[C@@H](O)[C@H]1O [SIN, sinefungin] |  | 12.6 ± 2.8 | preserved its inhibitory capacity

— publication PMC10575543 (PLOS Pathogens, 2023)
